From patent US20090253669A1, “Substituted Sulfonamide Compounds” (GRUENENTHAL GmbH, priority 2008, published 2009)

Key:
[1] = biological target: T1, human B1R receptor (hB1R) (Homo sapiens, UniProt P46663); assay: FLIPR Ca2+ assay on hB1R-transfected CHO K1 cells, antagonistic action; assay type: cell-based; conditions: CHO-K1, 10 μM test substance; agonist Lys-Des-Arg9-bradykinin 0.5 nM; % of maximum achievable inhibition; read-out: hB1R [10 μM] % inhibition
T1 construct: host or cells: CHO K1 cells
T1 sequence (P46663 1-353): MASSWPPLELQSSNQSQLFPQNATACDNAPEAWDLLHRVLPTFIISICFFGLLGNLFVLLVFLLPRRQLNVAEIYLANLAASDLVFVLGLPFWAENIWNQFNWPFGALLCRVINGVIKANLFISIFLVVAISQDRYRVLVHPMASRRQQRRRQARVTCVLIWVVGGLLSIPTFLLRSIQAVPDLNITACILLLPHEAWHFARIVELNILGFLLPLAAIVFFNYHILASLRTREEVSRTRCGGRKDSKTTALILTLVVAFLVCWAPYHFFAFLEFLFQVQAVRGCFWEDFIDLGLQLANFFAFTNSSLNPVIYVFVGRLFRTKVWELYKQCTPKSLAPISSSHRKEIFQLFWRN

[2] = biological target: T2, B1R receptor of the rat (rB1R) (Rattus norvegicus, UniProt P97583); assay: FLIPR Ca2+ assay on rB1R-transfected CHO K1 cells, antagonistic action; assay type: cell-based; conditions: CHO-K1, 10 μM test substance; agonist Des-Arg9-bradykinin 100 nM; % of maximum achievable inhibition; read-out: rB1R [10 μM] % inhibition
T2 construct: host or cells: CHO K1 cells
T2 sequence (P97583 1-337): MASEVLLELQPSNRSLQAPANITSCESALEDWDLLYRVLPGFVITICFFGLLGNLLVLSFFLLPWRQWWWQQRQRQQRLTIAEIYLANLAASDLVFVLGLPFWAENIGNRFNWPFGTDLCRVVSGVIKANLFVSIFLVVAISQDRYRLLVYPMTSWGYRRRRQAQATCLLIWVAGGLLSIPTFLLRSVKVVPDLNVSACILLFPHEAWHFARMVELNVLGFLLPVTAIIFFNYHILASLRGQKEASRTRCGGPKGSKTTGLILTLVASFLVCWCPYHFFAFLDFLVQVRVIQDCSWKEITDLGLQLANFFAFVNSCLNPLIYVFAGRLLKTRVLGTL

Structure (SMILES)	inhibition at 10 µM [1] [%]	inhibition at 10 µM [2] [%]
CN1CCN(C2(CCc3ccccc3)CCN(C(=O)COCC3CCc4ccccc4N3S(=O)(=O)c3ccc(Cl)c(Cl)c3)CC2)CC1 (centres unmarked) [Compound 116, 2-((1-(3,4-dichlorophenylsulfonyl)-1,2,3,4-tetrahydroquinolin-2-yl)methoxy)-1-(4-(4-methylpiperazin-1-yl)-4-phenethylpiperidin-1-yl)ethanone]	57	71
Cc1cc(S(=O)(=O)N2CCCCC2CCC(=O)N(C)CCC2CCC(Cc3ccccc3)(N3CCCC3)CC2)c(C)cc1Cl (centres unmarked) [Compound 117, N-(2-(4-benzyl-4-(pyrrolidin-1-yl)cyclohexyl)ethyl)-3-(1-(4-chloro-2,5-dimethylphenylsulfonyl)piperidin-2-yl)-N-methylpropanamide]	103	70
CN1CCN(C2(Cc3ccccc3)CCN(C(=O)CC(NS(=O)(=O)c3ccc4ccccc4c3)c3ccccc3)CC2)CC1 (centres unmarked) [Compound 118, N-(3-(4-benzyl-4-(4-methylpiperazin-1-yl)piperidin-1-yl)-3-oxo-1-phenylpropyl)naphthalene-2-sulfonamide]	101	69
CN1CCN(C2(CCc3ccccc3)CCN(C(=O)CC3CCCCN3S(=O)(=O)c3cccc(C(F)(F)F)c3)CC2)CC1 (centres unmarked) [Compound 119, 1-(4-(4-methylpiperazin-1-yl)-4-phenethylpiperidin-1-yl)-2-(1-(3-(trifluoromethyl)phenylsulfonyl)piperidin-2-yl)ethanone]	90	69
CN1CCN(C2(c3cccc(F)c3)CCN(C(=O)CC(NS(=O)(=O)c3ccc4ccccc4c3)c3ccccc3)CC2)CC1 (centres unmarked) [Compound 120, N-(3-(4-(3-fluorophenyl)-4-(4-methylpiperazin-1-yl)piperidin-1-yl)-3-oxo-1-phenylpropyl)naphthalene-2-sulfonamide]	97	67
CN(CCC1CCC(Cc2ccccc2)(N2CCCC2)CC1)C(=O)CC1CCCCN1S(=O)(=O)c1cccc(C(F)(F)F)c1 (centres unmarked) [Compound 121, N-(2-(4-benzyl-4-(pyrrolidin-1-yl)cyclohexyl)ethyl)-N-methyl-2-(1-(3-(trifluoromethyl)phenylsulfonyl)piperidin-2-yl)acetamide]	102	66
Cc1cc(S(=O)(=O)N2CCCCC2CCC(=O)N2CCC(CCc3ccccc3)(N3CCN(C)CC3)CC2)c(C)cc1Cl (centres unmarked) [Compound 122, 3-(1-(4-chloro-2,5-dimethylphenylsulfonyl)piperidin-2-yl)-1-(4-(4-methylpiperazin-1-yl)-4-phenethylpiperidin-1-yl)propan-1-one]	105	66
Cc1cc(S(=O)(=O)N2CCCCC2CCC(=O)N2CCC(c3ccccc3)(N(C)C)CC2)c(C)cc1Cl (centres unmarked) [Compound 123, 3-(1-(4-chloro-2,5-dimethylphenylsulfonyl)piperidin-2-yl)-1-(4-(dimethylamino)-4-phenylpiperidin-1-yl)propan-1-one]	103	60
Cc1cc(S(=O)(=O)N2CCCCC2CCC(=O)N(C)CCCC2CCC(Cc3ccccc3)(N3CCCC3)CC2)c(C)cc1Cl (centres unmarked) [Compound 124, N-(3-(4-benzyl-4-(pyrrolidin-1-yl)cyclohexyl)propyl)-3-(1-(4-chloro-2,5-dimethylphenylsulfonyl)piperidin-2-yl)-N-methylpropanamide]	98	58
CN(CCC1CCC(c2ccccc2)(N(C)C)CC1)C(=O)CC1CCCCN1S(=O)(=O)c1cccc(C(F)(F)F)c1 (centres unmarked) [Compound 125, N-(2-(4-(dimethylamino)-4-phenylcyclohexyl)ethyl)-N-methyl-2-(1-(3-(trifluoromethyl)phenylsulfonyl)piperidin-2-yl)acetamide]	98	56
CN1CCN(C2(c3ccc(F)cc3)CCN(C(=O)COCC3CCc4ccccc4N3S(=O)(=O)c3ccc(Cl)c(Cl)c3)CC2)CC1 (centres unmarked) [Compound 126, 2-((1-(3,4-dichlorophenylsulfonyl)-1,2,3,4-tetrahydroquinolin-2-yl)methoxy)-1-(4-(4-fluorophenyl)-4-(4-methylpiperazin-1-yl)piperidin-1-yl)ethanone]	87	55
CN(CC1CCC(Cc2ccccc2)(N2CCCC2)CC1)C(=O)COCC1CCc2ccccc2N1S(=O)(=O)c1ccc(Cl)c(Cl)c1 (centres unmarked) [Compound 127, N-((4-benzyl-4-(pyrrolidin-1-yl)cyclohexyl)methyl)-2-((1-(3,4-dichlorophenylsulfonyl)-1,2,3,4-tetrahydroquinolin-2-yl)methoxy)-N-methylacetamide]	90	54
CN(CCCC1CCC(c2ccccc2)(N2CCCC2)CC1)C(=O)CC(NS(=O)(=O)c1ccc2ccccc2c1)c1ccccc1 (centres unmarked) [Compound 128, N-methyl-3-(naphthalene-2-sulfonamido)-3-phenyl-N-(3-(4-phenyl-4-(pyrrolidin-1-yl)cyclohexyl)propyl)propanamide]	98	53
Cc1cc(S(=O)(=O)N2CCCCC2CCC(=O)N(C)CC2CCC(Cc3ccccc3)(N3CCCC3)CC2)c(C)cc1Cl (centres unmarked) [Compound 129, N-((4-benzyl-4-(pyrrolidin-1-yl)cyclohexyl)methyl)-3-(1-(4-chloro-2,5-dimethylphenylsulfonyl)piperidin-2-yl)-N-methylpropanamide]	104	52
Cc1cc(S(=O)(=O)N2CCCCC2CCC(=O)N2CCC(Cc3ccccc3)(N3CCN(C)CC3)CC2)c(C)cc1Cl (centres unmarked) [Compound 130, 1-(4-benzyl-4-(4-methylpiperazin-1-yl)piperidin-1-yl)-3-(1-(4-chloro-2,5-dimethylphenylsulfonyl)piperidin-2-yl)propan-1-one]	102	49
Cc1cc(S(=O)(=O)N2CCCCC2CCC(=O)N(C)CCC2CCC(CCc3ccccc3)(N3CCCC3)CC2)c(C)cc1Cl (centres unmarked) [Compound 131, 3-(1-(4-chloro-2,5-dimethylphenylsulfonyl)piperidin-2-yl)-N-methyl-N-(2-(4-phenethyl-4-(pyrrolidin-1-yl)cyclohexyl)ethyl)propanamide]	99	47
Cc1cc(S(=O)(=O)N2CCCCC2CCC(=O)N(C)CCC2CCC(CCc3ccccc3)(N(C)C)CC2)c(C)cc1Cl (centres unmarked) [Compound 132, 3-(1-(4-chloro-2,5-dimethylphenylsulfonyl)piperidin-2-yl)-N-(2-(4-(dimethylamino)-4-phenethylcyclohexyl)ethyl)-N-methylpropanamide]	103	43
CN(CCCC1CCC(c2ccccc2)(N2CCCC2)CC1)C(=O)COCC1CCc2ccccc2N1S(=O)(=O)c1ccc(Cl)c(Cl)c1 (centres unmarked) [Compound 133, 2-((1-(3,4-dichlorophenylsulfonyl)-1,2,3,4-tetrahydroquinolin-2-yl)methoxy)-N-methyl-N-(3-(4-phenyl-4-(pyrrolidin-1-yl)cyclohexyl)propyl)acetamide]	92	42
CN(CCCC1CCC(CCc2ccccc2)(N2CCCC2)CC1)C(=O)CC1CCCCN1S(=O)(=O)c1cccc(C(F)(F)F)c1 (centres unmarked) [Compound 134, N-methyl-N-(3-(4-phenethyl-4-(pyrrolidin-1-yl)cyclohexyl)propyl)-2-(1-(3-(trifluoromethyl)phenylsulfonyl)piperidin-2-yl)acetamide]	102	38
Cc1cc(S(=O)(=O)N2CCCCC2CCC(=O)N2CCC(c3cccc(F)c3)(N3CCN(C)CC3)CC2)c(C)cc1Cl (centres unmarked) [Compound 135, 3-(1-(4-chloro-2,5-dimethylphenylsulfonyl)piperidin-2-yl)-1-(4-(3-fluorophenyl)-4-(4-methylpiperazin-1-yl)piperidin-1-yl)propan-1-one]	104	37
Cc1cc(S(=O)(=O)N2CCCCC2CCC(=O)N(C)CCCC2CCC(c3ccccc3)(N3CCCC3)CC2)c(C)cc1Cl (centres unmarked) [Compound 136, 3-(1-(4-chloro-2,5-dimethylphenylsulfonyl)piperidin-2-yl)-N-methyl-N-(3-(4-phenyl-4-(pyrrolidin-1-yl)cyclohexyl)propyl)propanamide]	99	32
Cc1cc(S(=O)(=O)N2CCCCC2CCC(=O)N2CCC(CCc3ccccc3)(N(C)C)CC2)c(C)cc1Cl (centres unmarked) [Compound 137, 3-(1-(4-chloro-2,5-dimethylphenylsulfonyl)piperidin-2-yl)-1-(4-(dimethylamino)-4-phenethylpiperidin-1-yl)propan-1-one]	104	30
